From patent US20240382540A1, “MODULATION OF FUSOBACTERIUM VARIUM TO PREVENT BOVINE LIVER ABSCESSES AND IMPROVE CATTLE PERFORMANCE” (priority 2023, published 2024)

Columns and labels:
[1] = system: Fusobacterium necrophorum; settings: grain-fed cattle; antibiotic as component of cattle feed; cited from earlier work
[2] = system: F. varium; assay: Antimicrobial susceptibility testing: growth of F. varium strains exposed to tylosin and monensin; format: cell-based, Fusobacterium varium; settings: for growth inhibition: all tested F. varium strains
Text: (§1) In an effort to understand the differential response of Fusobacterium species to antimicrobial agents commonly used in livestock, we examined the effect of tylosin and monensin on the growth of reference strains and newly isolated strains of F. varium and F. necrophorum.
(§2) To set up the experiment, we exposed three strains each of F. varium and F. necrophorum to tylosin and monensin at concentrations relevant to ruminal environments.

[3] = system: F. necrophorum; assay: Antimicrobial susceptibility testing: growth of F. necrophorum strains exposed to tylosin and monensin; format: cell-based, Fusobacterium necrophorum; settings: for decline/reduction in growth: F. necrophorum strain 8L1; for growth inhibition: all three F. necrophorum strains tested
Text: as §1, §2
Strains A and 8L1 were most affected, with both displaying a 98% reduction in growth. […] In this context, growth reductions of 44-66% were observed (P<0.05).

[4] = system: F. varium; assay: Rumen fluid enrichment cultures with lactate; format: cell-based, Fusobacterium varium; settings: lactate present in rumen fluid enrichment cultures
Text: Microbial lactate utilization is linked to several pathogenic mechanisms. […] Currently it is unknown if some or all cattle-associated F. varium strains are able to derive energy from lactate. […] Thus, it is possible that the acquisition of this or a similar mobile genetic element has provided some bovine F. varium strains with the capability of utilizing lactate as a source of energy and a means for avoiding host immunity.
This identification was based on 16S rRNA sequencing using close to the full-length gene (27F/1492R primers), a reliable method for determining bacterial species (FIG. 1).

[5] = concentrations relevant to ruminal environments

Molecule	ruminal concentrations of Fusobacterium necrophorum [1]	growth inhibition [2, 5]	decline/reduction in growth [3] [%]	growth inhibition [3]	further results
virginiamycin	significantly reduced				
CC[C@H]1OC(=O)C[C@@H](O)[C@H](C)[C@@H](O[C@@H]2O[C@H](C)[C@@H](O[C@H]3C[C@@](C)(O)[C@@H](O)[C@H](C)O3)[C@H](N(C)C)[C@H]2O)[C@@H](CC=O)C[C@@H](C)C(=O)/C=C/C(C)=C/[C@@H]1CO[C@@H]1O[C@H](C)[C@@H](O)[C@@H](OC)[C@H]1OC [tylosin]	significantly reduced	none of the tested strains exhibited substantial growth inhibition	92	over 67%	decline in growth ([2]; strain F. varium DNLA-8, concentrations relevant to ruminal environments): 13%; decline in growth ([3]; F. necrophorum strain FNA): 94%
CC[C@@]1([C@@H]2O[C@@H]([C@H]3O[C@@](O)(CO)[C@H](C)C[C@@H]3C)C[C@@H]2C)CC[C@H]([C@]2(C)CC[C@]3(C[C@H](O)[C@@H](C)[C@@H]([C@@H](C)[C@@H](OC)[C@H](C)C(=O)O)O3)O2)O1 [monensin]		did not show substantial growth inhibition	98	more than 87%	decrease in growth ([2]; F. varium bovine isolates, concentrations relevant to ruminal environments): 15%; growth response ([2]; reference strain F. varium NCTC 10560): no significant response; reduction in growth ([3]; F. necrophorum strain A): 98%; growth reduction ([3]; F. necrophorum, medium containing only casein pancreatic digest and yeast extract as carbon sources): 44-66%
CC(O)C(=O)O (stereo not drawn) [lactate]					enrichment of native F. varium strains [4]: up to 35,000 fold
